One test deals with B16F0 cells. Briefly: In vitro glycoengineered expression of GM3NPhAc on cell surface, flow cytometry with mAb 2H3. In kind it is cell-based, murine. Here is the method:
(§1) FIG. 3 depicts histograms of the glycoengineering of B16F0 cells (a), 3T3 A31 cells (b) and SKMEL-28 cells (c) using ManNPhAc which induces expression of GM3NPhAc on the cell surface. Cells were cultured with 0, 0.01, 0.02 and 0.04 mM of ManNPhAc, stained with mAb 2H3, labeled with FITC-labeled goat anti-mouse kappa antibody, and analyzed by flow cytometry. Data are presented as raw histograms derived from 20,000 events.
(§2) FIG. 4 depicts histograms of the glycoengineering of B16F0 (a) and 3T3 A31 (b) using NeuNPhAc induces expression of GM3NPhAc on the cell surface. Cells were cultured with 0, 0.01, 0.02 and 0.04 mM of NeuNPhAc, stained with mAb 2H3, labeled with FITC-labeled goat anti-mouse kappa antibody, and analyzed by flow cytometry. Data are presented as raw histograms derived from 10,000 events.
(§3) B16F0, 3T3 A31 and SKMEL-28 cells were incubated with 0.01, 0.02 and 0.04 mM of ManNPhAc or NeuNPhAc, harvested at different time, washed with FACS buffer (phosphate-buffered saline (PBS) containing 1% bovine serum albumin), and incubated on ice for 15 minutes with 100 μL of normal mouse serum (NMS) diluted 1:100 in FACS buffer. Cells were washed 3 times with FACS buffer, and incubated for 30 minutes on ice with 100 μL of anti-GM3NPhAc mAb 2H3 (cell culture supernatant) diluted 1:10 in FACS buffer. Cells were washed again (3 times) and incubated for 30 minutes on ice with 1 μg of FITC-conjugated goat anti-mouse kappa antibody diluted in FACS buffer (100 μL). After washing 3 times with FACS buffer, the expression of GM3NPhAc on cell surfaces was evaluated on a Becton Dickenson FACScan flow cytometer. Data are presented as raw histograms derived from 20000 events.
In general terms: Flow cytometry measures light scatter and fluorescence of single cells or particles in a stream.

A further test has as its system 3T3 A31 cells. The description is as above. In kind it is cell-based, murine. Here is the method:
as §1, §2, §3

For another test, the system named is SKMEL-28 cells. Described as above. It is filed as cell-based, human. Here is the method: as §1, §3
The test system of the next test is GM3NPhAc. The test is described as follows: ELISA analysis of GM3NPhAc-specific immune responses in immunized mice. In kind it is in vivo. Here is the method: FIG. 1 relates to the ELISA analysis of GM3NPhAc-specific immune responses in mice. For ELISA assays, GM3NPhAc-HSA was used as the capture antigen. Goat anti-mouse kappa antibodies were used to detect antibodies bond to the capture antigen. Titers are determined by linear regression analysis and defined as the highest dilution yielding an optical density of 0.2. (a) GM3NPhAc-specific total antibody contents in day −1, 27 and 38 mice sera. Mice were immunized with 1N containing 15 μg of GM3NPhAc. Each line represents the antibody level in serum pooled from a group of five mice. (b) Comparison of GM3NPhAc-specific total antibody titers in day 38 mice sera. Mice were immunized with 1N containing 15, 6 or 3 μg of GM3NPhAc. (c) Comparison of immunological results of conjugates 1, 2 and T-1. 1N: conjugate 1 alone; 1A: conjugate 1+an external adjuvant; 2N: conjugate 2 alone; 2A: conjugate 2+an external adjuvant; T-1N: conjugate T-1 alone. Each dot represents the GM3NPhAc-specific immune response of individual mouse and the black lines represent the average antibody level of a group of five mice.
FIG. 2 relates to the titer analysis of different isotypes of GM3NPhAc-specific antibodies induced by 1N (left) and T-1N (right). […] Titers are determined by linear regression analysis and defined as the highest dilution yielding an optical density of 0.2. […]
(An ELISA detects its analyte on a solid surface through an enzyme-linked reagent.)

Each structure is given as a SMILES string.

In the case of `O=C(Cc1ccccc1)N[C@H]1[C@H]([C@H](O)[C@H](O)CO)OC(O)(C(=O)O)C[C@@H]1O` (stereo partly drawn) [NeuNPhAc], the “Expression of GM3NPhAc on cell surface relative to ManNPhAc” value with B16F0 cells (72 hours, same concentrations (0.01, 0.02, 0.04 mM)) was “more significant expression of GM3NPhAc than that incubated with ManNPhAc”. In the test with 3T3 A31 cells (0.01, 0.02, 0.04 mM), the “Utilization to express GM3NPhAc on cell surface” value was “much more efficiently to express GM3NPhAc, even better than B16F0 cancer cells”.

For `[2H]C(C(=O)N[C@@H]1C(O)O[C@H](CO)[C@@H](O)[C@@H]1O)c1ccccc1` (stereo partly drawn) [ManNPhAc], the “Cells showing labelling of GM3NPhAc” value is recorded as “only partial B16F0 cell” in the test with B16F0 cells (0.01 mM) and “no 3T3 A31 cell showing labelling of GM3NPhAc” in the test with 3T3 A31 cells (0.01 mM). In addition, the “Expression of GM3NPhAc on cell surface” value in the test on B16F0 cells (0.01 mM, 72 hours) is given as “significant expression of GM3NPhAc”; in the test on SKMEL-28 cells (0.02 mM, 96 hours), “further increased”; with SKMEL-28 cells (0.04 mM, 96 hours) it was “further increased”. Further, in the test with B16F0 cells (0.01, 0.02, 0.04 mM, 72 hours), the “Concentration dependence of GM3NPhAc expression” value is given as “dependent on ManNPhAc concentrations”. The figures for the “Labelling for GM3NPhAc compared to control group” value with 3T3 A31 cells (0.01 mM), in the test on 3T3 A31 cells (0.02 mM) and in the test on 3T3 A31 cells (0.04 mM) were “no substantial labelling”, “no substantial labelling” and “started to show labelling”, respectively. Moreover, the “Cells showing significant GM3NPhAc labelling above the control group” value in the test with SKMEL-28 cells (0.01 mM, 96 hours) is 100%. Also, the “Concentration at which a plateau level of GM3NPhAc expression was reached” value with SKMEL-28 cells (data not shown) is at least 0.04 mM.

Turning to `CCC(=O)OC1C(NC(=O)C[C@@H](CC)OC(=O)CC)[C@H](OCCNC(=O)CCC(=O)NCc2cn(CCOC3OC(CO)[C@@H](O[C@@H]4OC(CO)[C@H](O)C(O[C@]5(C(=O)O)CC(O)[C@@H](NC(=O)Cc6ccccc6)C([C@H](O)[C@H](O)CO)O5)C4O)C(O)C3O)nn2)OC(CO[C@@H]2OC(CO)[C@@H](OP(=O)(O)O)C(OC(=O)CC)C2NC(=O)C[C@@H](CC)OC(=O)CC)[C@H]1O` (stereo partly drawn) [Compound T-1], in the test with GM3NPhAc (day 38 mice sera, conjugate alone), the “Isotypes of GM3NPhAc-specific antibodies (IgM, IgG1, IgG2a, IgG3)” value was “not only GM3NPhAc-specific IgM and IgG1 antibodies, but also much higher titers of IgG3 antibody”. For the same molecule, in the test with GM3NPhAc (liposome of conjugate alone, no external adjuvant (groups 1N, 2N, T-1N), 15 μg of GM3NPhAc, s.c. day 0, 14, 21, 28), the “GM3NPhAc-specific total antibody immune response” value is recorded as “comparable to that induced by 1”.

Source of the values: patent US9259476B2, “Monophosphorylated lipid A derivatives” (WAYNE STATE UNIVERSITY, priority 2009, dated 2016).
